Results taken from patent US11465975B2, “Certain chemical entities, compositions, and methods” (NeuPharma, Inc., priority 2018, dated 2022).
Values joined by “and” are separate entries in the source; they are usually repeats but may differ in a detail not shown here. Equal values may be shown once.

Columns and labels:
Format in all cases: physicochemical
[1] = Competitive test of Form I and Form VI (suspension equilibration, XRPD check); settings: for Check result at 7 days (form of residual solid, XRPD): room temperature; for Check result at 21 days (form of residual solid, XRPD): 14 days RT then 40° C.; for Check result at 14 days (form of residual solid, XRPD): 7 days RT then 40° C.
Description: X-ray powder diffraction (XRD) patterns were obtained on a Bruker D8 Advance. A CuK source (=1.54056 angstrom) operating minimally at 40 kV and 40 mA scans each sample between 4 and 40 degrees 2-theta. The step size is 0.05° C. and scan speed is 0.5 second per step.
Two polymorphic forms of the compound of Formula I, Form I and Form VI, were suspended at the ratio of 1:1 in various solvents and equilibrated at room temperature for a period of time. The forms of the residual solid were checked at 7 days. If still a mixed form, continued to equilibrate at room temperature or 40° C. The solvents were EtOAc, iPoAc, Acetone, MEK, EtOH, IPA, IPE, MTBE, Hexane and Heptane.
XRPD profiles were acquired at the beginning and end of the experiment and compared to XRPD patterns of the known forms.

[2] = Preliminary accelerated stability test of Form VI (HPLC, XRPD, DSC); settings: for Assay % / Average assay (%) / Peak area % / Total impurity (%): solid; for Assay % / Average assay (%) / Peak area %: HPLC; for Total impurity (%): peak area normalized method
Description: (§1) HPLCs were preformed using the following instrument and/or conditions.
(§2) Form VI of the compound of Formula I was used for the preliminary accelerated stability test. The samples were exposed to different stressed condition (40° C./75% RH and 60° C.) for 2 weeks. Standard controls were placed at −20° C. Samples and corresponding standard controls were pulled out for XRPD, DSC and HPLC analysis at 0 day, 1st week and 2nd week, respectively. The samples placed under condition without humidity were closed tightly with cap. The samples placed under humidity condition were just covered with aluminum foil with pinholes. HPLC steps were performed as described in Example 14.

[3] = Preliminary accelerated stability test of Form I, non-micronized and micronized (HPLC, XRPD, DSC); set-up: RRT 1.09: unit not given here; settings: for Stability tested by HPLC, XRPD and DSC (degradation and crystal conversion): 40° C./75% RH and 60° C. for 2 weeks; for Assay % / Average Total impurity (%) / Average assay (%) / Peak area % / RRT 1.09 / Total impurity (%): solid, HPLC
Description: as §1
as §2, with “Form” for “Form VI of the compound of Formula”, “I (both non-micronized and micronized)” for “I”

C=CC(=O)Nc1cccc(-c2cccc3cnc(Nc4ccc(N5CCN(CCO)CC5)c(F)c4F)nc23)c1 [Form I and Form VI, N-(3-(2-((2,3-difluoro-4-(4-(2-hydroxyethyl)piperazin-1-yl)phenyl)amino)quinazolin-8-yl)phenyl)acrylamide]
Check result at 7 days (form of residual solid, XRPD) ([1]; 1:1 suspension in EtOH): Form III and Form VI | Check result at 7 days (form of residual solid, XRPD) ([1]; 1:1 suspension in IPA): Form VI | Check result at 7 days (form of residual solid, XRPD) ([1]; 1:1 suspension in MEK): Form I | Check result at 21 days (form of residual solid, XRPD) ([1]; 1:1 suspension in MTBE): Form I | Check result at 7 days (form of residual solid, XRPD) ([1]; 1:1 suspension in acetone): Form I | Check result at 14 days (form of residual solid, XRPD) ([1]; 1:1 suspension in ethyl acetate (EtOAc)): Form I | Check result at 21 days (form of residual solid, XRPD) ([1]; 1:1 suspension in heptane): Mixed | Check result at 21 days (form of residual solid, XRPD) ([1]; 1:1 suspension in hexane): Mixed | Check result at 14 days (form of residual solid, XRPD) ([1]; 1:1 suspension in isopropyl acetate (iPoAc)): Form I | Check result at 21 days (form of residual solid, XRPD) ([1]; 1:1 suspension in isopropyl ether (IPE)): Mixed

C=CC(=O)Nc1cccc(-c2cccc3cnc(Nc4ccc(N5CCN(CCO)CC5)c(F)c4F)nc23)c1 [Form VI, N-(3-(2-((2,3-difluoro-4-(4-(2-hydroxyethyl)piperazin-1-yl)phenyl)amino)quinazolin-8-yl)phenyl)acrylamide]
Stability tested by HPLC, XRPD and DSC (degradation and crystal conversion) ([2]; 40° C./75% RH and 60° C. for 2 weeks): No significant degradation and crystal conversion were detected | Assay % ([2]; 40° C./75% RH, 7 days): 91.50% and 91.85% | Average assay (%) ([2]; 40° C./75% RH, 7 days): 91.67% | Peak area % ([2]; 40° C./75% RH, 7 days): 99.0% and 99.1% | Total impurity (%) ([2]; 40° C./75% RH, 7 days): 0.98% and 0.95% | Assay % ([2]; 40° C./75% RH, 14 days): 92.13% and 91.45% | Average assay (%) ([2]; 40° C./75% RH, 14 days): 91.79% | Peak area % ([2]; 40° C./75% RH, 14 days): 99.0% | Total impurity (%) ([2]; 40° C./75% RH, 14 days): 0.99% and 0.96% | Assay % ([2]; 60° C., 7 days): 91.61% and 93.76% | Average assay (%) ([2]; 60° C., 7 days): 92.68% | Peak area % ([2]; 60° C., 7 days): 98.9% and 99.0% | Total impurity (%) ([2]; 60° C., 7 days): 1.10% and 1.04% | Assay % ([2]; 60° C., 14 days): 91.82% and 91.77% | Average assay (%) ([2]; 60° C., 14 days): 91.80% | Peak area % ([2]; 60° C., 14 days): 99.0% and 99.1% | Total impurity (%) ([2]; 60° C., 14 days): 1.01% and 0.94% | Assay % ([2]; −20° C. (standard control)): 92.15% and 92.28% | Average assay (%) ([2]; −20° C. (standard control)): 92.21% | Peak area % ([2]; −20° C. (standard control)): 99.0% | Total impurity (%) ([2]; −20° C. (standard control)): 0.95% and 0.98%

C=CC(=O)Nc1cccc(-c2cccc3cnc(Nc4ccc(N5CCN(CCO)CC5)c(F)c4F)nc23)c1 [micronized Form I, N-(3-(2-((2,3-difluoro-4-(4-(2-hydroxyethyl)piperazin-1-yl)phenyl)amino)quinazolin-8-yl)phenyl)acrylamide]
Stability tested by HPLC, XRPD and DSC (degradation and crystal conversion) [3]: No significant degradation and crystal conversion were detected | Assay % ([3]; 40° C./75% RH, 7 d): 97.67% and 97.30% | Average Total impurity (%) ([3]; 40° C./75% RH, 7 d): 0.86% | Average assay (%) ([3]; 40° C./75% RH, 7 d): 97.48% | Peak area % ([3]; 40° C./75% RH, 7 d): 99.14% | RRT 1.09 ([3]; 40° C./75% RH, 7 d): 0.029 and 0.024 | Total impurity (%) ([3]; 40° C./75% RH, 7 d): 0.86% | Assay % ([3]; 40° C./75% RH, 14 d): 96.20% and 98.00% | Average Total impurity (%) ([3]; 40° C./75% RH, 14 d): 0.88% | Average assay (%) ([3]; 40° C./75% RH, 14 d): 97.10% | Peak area % ([3]; 40° C./75% RH, 14 d): 99.11% and 99.12% | RRT 1.09 ([3]; 40° C./75% RH, 14 d): 0.028 | Total impurity (%) ([3]; 40° C./75% RH, 14 d): 0.89% and 0.88% | Assay % ([3]; 60° C., 7 d): 98.46% and 97.35% | Average Total impurity (%) ([3]; 60° C., 7 d): 0.85% | Average assay (%) ([3]; 60° C., 7 d): 97.90% | Peak area % ([3]; 60° C., 7 d): 99.15% | RRT 1.09 ([3]; 60° C., 7 d): 0.022 and 0.028 | Total impurity (%) ([3]; 60° C., 7 d): 0.85% | Assay % ([3]; 60° C., 14 d): 98.52% and 98.23% | Average Total impurity (%) ([3]; 60° C., 14 d): 0.87% | Average assay (%) ([3]; 60° C., 14 d): 98.37% | Peak area % ([3]; 60° C., 14 d): 99.12% and 99.13% | RRT 1.09 ([3]; 60° C., 14 d): 0.027 and 0.028 | Total impurity (%) ([3]; 60° C., 14 d): 0.88% and 0.87% | Assay % ([3]; RT): 98.74% and 98.36% | Average Total impurity (%) ([3]; RT): 0.84% | Average assay (%) ([3]; RT): 98.55% | Peak area % ([3]; RT): 99.14% and 99.18% | RRT 1.09 ([3]; RT): 0.029 and 0.024 | Total impurity (%) ([3]; RT): 0.86% and 0.82%

C=CC(=O)Nc1cccc(-c2cccc3cnc(Nc4ccc(N5CCN(CCO)CC5)c(F)c4F)nc23)c1 [non-micronized Form I, N-(3-(2-((2,3-difluoro-4-(4-(2-hydroxyethyl)piperazin-1-yl)phenyl)amino)quinazolin-8-yl)phenyl)acrylamide]
Stability tested by HPLC, XRPD and DSC (degradation and crystal conversion) [3]: No significant degradation and crystal conversion were detected | Assay % ([3]; 40° C./75% RH, 7 d): 98.28% and 98.59% | Average Total impurity (%) ([3]; 40° C./75% RH, 7 d): 0.88% | Average assay (%) ([3]; 40° C./75% RH, 7 d): 98.44% | Peak area % ([3]; 40° C./75% RH, 7 d): 99.12% | RRT 1.09 ([3]; 40° C./75% RH, 7 d): 0.027 and 0.032 | Total impurity (%) ([3]; 40° C./75% RH, 7 d): 0.88% | Assay % ([3]; 40° C./75% RH, 14 d): 98.24% and 97.53% | Average Total impurity (%) ([3]; 40° C./75% RH, 14 d): 0.86% | Average assay (%) ([3]; 40° C./75% RH, 14 d): 97.88% | Peak area % ([3]; 40° C./75% RH, 14 d): 99.14% | RRT 1.09 ([3]; 40° C./75% RH, 14 d): 0.026 and 0.027 | Total impurity (%) ([3]; 40° C./75% RH, 14 d): 0.86% | Assay % ([3]; 60° C., 7 d): 95.99% and 98.78% | Average Total impurity (%) ([3]; 60° C., 7 d): 0.85% | Average assay (%) ([3]; 60° C., 7 d): 97.38% | Peak area % ([3]; 60° C., 7 d): 99.15% | RRT 1.09 ([3]; 60° C., 7 d): 0.030 and 0.028 | Total impurity (%) ([3]; 60° C., 7 d): 0.85% | Assay % ([3]; 60° C., 14 d): 98.38% and 99.25% | Average Total impurity (%) ([3]; 60° C., 14 d): 0.85% | Average assay (%) ([3]; 60° C., 14 d): 98.81% | Peak area % ([3]; 60° C., 14 d): 99.17% and 99.14% | RRT 1.09 ([3]; 60° C., 14 d): 0.028 | Total impurity (%) ([3]; 60° C., 14 d): 0.83% and 0.86% | Assay % ([3]; RT): 98.98% and 99.18% | Average Total impurity (%) ([3]; RT): 0.84% | Average assay (%) ([3]; RT): 99.08% | Peak area % ([3]; RT): 99.18% and 99.14% | RRT 1.09 ([3]; RT): 0.027 | Total impurity (%) ([3]; RT): 0.82% and 0.86%
